Laboratory results published in patent US5204311A, “Ethanediimidic acid bis[(arylalkylidene)hydrazide] color-formers” (Minnesota Mining and Manufacturing Company, priority 1991, dated 1993).

Key:
Type in all cases: physicochemical
[1] = Color (Hunter coordinates) of Ni complex, swabbed on Ni-coated receptor (CF) sheet; design: key to Hunter coordinate a / Hunter Coordinates a: Hunter a: +a red, -a green; key to Hunter coordinate b / Hunter Coordinates b: Hunter b: +b yellow, -b blue
Method: In general, the colors of the complexes, as listed in Table 2 and Experiments 4, 6, and 7 below, were determined by preparing a 1% solution of the color-former or mixture of color-formers in an appropriate solvent. Unless otherwise indicated, the solvent was composed of a mixture of tributyl phosphate (26.5%), diethyl phthalate (17.6%), and cyclohexane (55.9%). The images were formed by applying two stripes of the solution to a substrate coated with a Ni^2+ coated receptor sheet using a cotton tipped applicator swab. Rapid and complete development of the image was achieved by passing the sheet through a hot shoe adjusted to 102° C., making a revolution every 10 seconds. The visually observed colors were measured and recorded.
One method of color measurement is to determine the color's position in color space. One color space system is the Hunter System; see F. W. Billmeyer, Jr., and M. Saltzman, Principles of Color Technology; John Wiley & Sons; New York, N.Y.; Ch. 2 & 3, 1981. In this system three mutually perpendicular axes (L, a, and b) are needed to define a color. "L" (+z axis) represents the lightness or darkness of the image; "a" (x axis) represents the amount of red or green (+a is red, -a is green); and "b" (y axis) represents the amount of yellow or blue (+b is yellow, -b is blue). By measuring a material's L, a, and b values, the color of one sample can be compared with that of other samples. Another value used in the Hunter System is Chroma (C). Chroma is defined by the equation [C=(a^2 +b^2)^1/2 ] and represents the distance of the image coordinates from the origin. The greater the Chroma, the more intense the image. Chroma is used to compare images cf the same hue. Because the color of a sample is also dependent upon the color temperature of the illuminating source, the angle at which the sample is illuminated, the angle at which the illumination is reflected, and the angle of the retina illuminated, these all need to be specified. Many instruments have been developed to record these values. One such instrument is the HunterLab LabScan II. This instrument is capable of automatically determining the L, a, and b values for a given sample, and was used for the following examples.
The L, a, and b color coordinates of the more uniform stripe were measured for 45°/0° reflectance on a HunterLab LabScan II, secondary observer, using illuminant C. The observed (image) color and the Hunter coordinates for Ni^2+ complexes of the yellow color-formers of this invention are given in Table 2.
A 1% solution of the condensation product in the encapsulation fill mix was swabbed onto a carbonless paper CF sheet (sold by the 3M Co. St. Paul, Minn.) with a cotton swab. The reflectance spectra had Hunter coordinates of: […]

[2] = Color formation with zinc salts (zinc rosinate)
Method: This color observed on the CF sheet was yellow. […] Solubility in a solvent blend of tributyl phosphate, diethyl phthalate and cyclohexane (capsule solvents for preparing carbonless copy-paper) was >9% by weight. Thus the ligand is eminently suitable for encapsulation. The ligand is not volatile at 71 ° C. overnight.
This color observed on the CF sheet was yellow.

[3] = Volatility: transfer from simulated donor sheet to receptor sheet; conditions: 71 ° C. overnight
Description: The method utilized in the experiments to both define and evaluate the level of volatility was as follows. A single sheet piece of Grade #10 (20×12 cm) cheesecloth (AF & F., Item No. 588033, American Fiber and Finishing, Inc., Burlington, Mass.) was placed between a simulated donor sheet and a receptor sheet of a carbonless paper construction. The simulated donor sheet comprised a sheet of paper saturated with color-former of structure I, which was used to simulate a CB sheet with ruptured capsules. Pressure was then applied for 24 hours by placing 9 pounds of paper on top of the sheets, to simulate storage conditions of the paper packages. The formation of color on the receptor sheet, due to transfer of volatile color-former thereto, was used as an indication that the particular color-former was less than optimally desirable for carbonless paper constructions, i.e., was volatile. A compound was considered generally to be nonvolatile, within the meaning of the term as used herein to define the present invention and thus to define color-formers most acceptable for use in carbonless image transfer arrangements, if no color was formed after the simulated test was run for about 24 hours at 25° C. In some instances, if no color was formed after storage at room temperature (25° C.), successively higher temperatures were used, as for example 49° C., 60° C., and 71° C. […]

[4] = 1% solution in encapsulation fill mix swabbed onto 3M CF sheet (Experiments 2, 3)
[5] = Ni(II) complex, swab concn. 1%, 45°/0° reflectance, illuminant C (Table 2)

Hunter coordinate L [1, 4]: 79.8
Hunter coordinate a [1, 4]: -2.1
Hunter coordinate b [1, 4]: 39.3
color observed on the CF sheet ([1]; 1% solution swabbed (Experiments 2, 3)): yellow
Chroma ([1]; C=(a^2 +b^2)^1/2, Ni(II) complex, swab concn. 1% (Table 2)): 39.3
Image Color ([1]; Ni(II) complex, swab concn. 1% (Table 2)): Yellow
Hunter Coordinates L [1, 5]: 79.8
Hunter Coordinates a [1, 5]: -2.1
Hunter Coordinates b [1, 5]: 39.3
color formation when reacted with zinc rosinate [2]: does not form color
volatility [3]: not volatile
Compound: CC(C)(C)c1cc(C=NN=C(N)C(N)=NN=Cc2cc(C(C)(C)C)cc(C(C)(C)C)c2O)c(O)c(C(C)(C)C)c1 [Compound 1, ethanediimidic acid bis[(3,5-di-t-butylsalicylidene)hydrazide]]
